Experiment [1] has as its system LNCaP cells. As to the kind of experiment: Pro- and/or anti-proliferative activity on LNCaP in medium depleted in steroids (WST-1). As to conditions: FIG. 1. Type of experiment: cell-based. The protocol: 2. Antiproliferative Activity on LNCaP in a Medium Depleted in Steroids:
The pro- and/or anti-proliferative activity of the compounds of the present invention is determined on LNCaP in medium depleted in steroids.
The LNCaP (ATCC, 1740) line originates from a carcinoma of the prostate expressing the androgen receptor, it is hormone-dependent.
The maintenance of the LNCaP line is carried out under the usual conditions in RPMI, 10% of foetal calf serum, 2 mM of glutamine, 100 U/ml of penicillin, 0.1 mg/ml of streptomycin and 0.01M HEPES, 1 mM sodium pyruvate, 40% of D-glucose.
For the study under conditions without steroids, 24 hours before the seeding the culture medium of the cells is eliminated. […]
The LNCaP line is seeded at 20,000 cells/well in 90 μl of RPMI medium with 10% foetal calf serum depleted in steroids in 96-well plates coated with poly-D-lysine (Biocoat, Costar). • Treatment of the cells: 24 h after seeding, the cells are treated with 10 μl/well of compound diluted in the culture medium. […] The cells are incubated for 144 h at 37° C., 5% CO2. • Reading: After incubation for 6 days, 10 μL of cell proliferation reagent WST-1 (Roche ref 1644807) is added to each well. […]
Background: Tetrazolium assays rely on reduction of a dye to a coloured formazan, in cell work by metabolically active cells.

The next experiment addresses T1, androgen receptor (Homo sapiens, UniProt P10275, T878A).
T1 construct: primary antibody directed against the androgen receptor (AR441, sc-7305, Santa Cruz); host or cells: LNCaP
Format: cell-based. As to conditions: LNCaP cells, 72 hours after treatment, western blot, FIGS. 2 to 10. The protocol:
The cells of the LNCaP line are seeded at a rate of 2.5 millions of cells per 10 cm Petri dish in RPMI, 10% of foetal calf serum, 2 mM of glutamine, 100 U/ml of penicillin, 0.1 mg/ml of streptomycin and 0.01M HEPES, 1 mM of sodium pyruvate, […]. 4 days later, the cells are treated with the compound to be tested. 72 hours after the treatment the cells are lyzed in lysis buffer (50 mM Tris pH 7.4, 150 mM NaCl, 1 mM EDTA, 20 mM NaF, 100 mM Na2VO3, 0.5% of NP40, 1% of Triton X-100, 1 mM EGTA, Pefabloc, protease inhibitor cocktail 11836170001 RocheDiagnostics, Phosphatase inhibitor cocktail set II Calbiochem). The cells are then scrapped and the lysate transferred into QIAshredder tubes (cat No. 79656 Qiagen) for centrifugation at 13,000 rpm for 15 min at 4° C. The supernatant is transferred into QIAshredder tubes for a second centrifugation at 13,000 rpm for 5 min in order to completely eliminate the DNA filaments. The protein concentration is then determined (Bio-Rad DC protein assay kit) and adjusted so as to load the same quantity of proteins per well (10 and 20 per well depending on the experiments). The loading buffer (sample loading buffer 3×ref 7722 Cell signaling technology) with added 1% beta-mercaptoethanol and 50 mM DTT, is added to the samples which are then heated for 10 min at 90° C. The samples are deposited under a volume of 20 μl on NuPAGE 4-12% Bis-Tris gels (cat No. NP0322BOX, Invitrogen). The migration takes place in MOPS buffer (Invitrogen) and is carried out for 1 hour at 180V. The proteins are transferred onto a nitrocellulose membrane (Hybond ECL RPN78D, GE Healthcare) under semi-dry conditions, in the presence of transfer buffer (NP0006-1, Invitrogen) over 45 min at 15V. The membrane is then blocked for 1 hour in blocking buffer (Non-fat dry milk, cat 170-6404, Biorad) at 5% in Tris Buffer saline (TBS) 0.1% Tween 20. Then it is incubated at 4° C. overnight in the presence of primary antibody directed against the androgen receptor (AR441, sc-7305, Santa Cruz) diluted to 1/2000th in blocking buffer as well as in the presence of primary antibody directed against GAPDH (Cat.MAB374, Millipore) diluted to 1/20,000th in blocking buffer (monitoring of protein load). The membrane is then washed 3 times in washing buffer (TBS, 0.1% Tween 20). The membrane is then incubated in the presence of secondary anti-immunoglobulin mouse antibody coupled with HRP (Goat anti-mouse IgG-HRP, sc 2031, Santa Cruz) diluted to 1/5000th in blocking buffer. The membrane is then washed 3 times in washing buffer.
(In general: A western blot detects proteins with antibodies after separation by electrophoresis.)

Experiment [2] deals with LNCaP cells. Put plainly: Anti-proliferative activity on LNCaP in complete medium (WST-1). Format: cell-based. As to conditions: Homo sapiens, 144 h, 144 h incubation, WST-1 reading, read-out: IC50 on the LNCaP cells in culture (concentration inhibiting the cell proliferation by 50%). The protocol: 1. Anti-Proliferative Activity on LNCaP in Complete Medium
The anti-proliferative activity of the compounds of the present invention is determined on LNCaP in complete medium by applying the following experimental procedure:
The LNCaP cell type (ATCC, 1740) originates from a prostate carcinoma expressing the androgen receptor, this line is hormone-dependent.
Maintenance of the LNCaP line is carried out in complete culture medium: RPMI, 10% of foetal calf serum, 2 mM glutamine, 100 U/ml penicillin, 0.1 mg/ml of streptomycin and 0.01M HEPES, 1 mM sodium pyruvate, 40% of D-glucose. • Seeding the plates:
The LNCaP line is seeded at 20,000 cells/well in […] of complete medium in 96-well plates coated with poly-D-lysine (Biocoat, Costar). • Treatment of the cells: 24 h after the seeding, the cells are treated with 10 μl/well of compound diluted in the culture medium. The concentrations used are the following: 1 nM/10/30/100/300/1000/3000/10,000/100,000 nM. The cells are incubated for 144 h at 37° C., 5% CO2. • Reading: After incubation for 6 days, 10 μL of the “WST-1 cell proliferation” reagent (Roche ref 1644807) is added to each well. After incubation for 2 hours at 37° C., 5% CO2, the absorbance at 450 nm is measured by spectrophotometry (Envision, Perkin Elmer). • Results: The experiments are carried out in duplicate and the best compounds are tested twice. A concentration value inhibiting the cell proliferation by 50% (IC50) is calculated.

Experiment [3] concerns LNCaP cells. As to conditions: medium depleted in steroids; stated 'as described previously' (Veldscholte 1992); cited from earlier work.

Structures are written as SMILES.

T1 sequence (P10275 whole entry T878A): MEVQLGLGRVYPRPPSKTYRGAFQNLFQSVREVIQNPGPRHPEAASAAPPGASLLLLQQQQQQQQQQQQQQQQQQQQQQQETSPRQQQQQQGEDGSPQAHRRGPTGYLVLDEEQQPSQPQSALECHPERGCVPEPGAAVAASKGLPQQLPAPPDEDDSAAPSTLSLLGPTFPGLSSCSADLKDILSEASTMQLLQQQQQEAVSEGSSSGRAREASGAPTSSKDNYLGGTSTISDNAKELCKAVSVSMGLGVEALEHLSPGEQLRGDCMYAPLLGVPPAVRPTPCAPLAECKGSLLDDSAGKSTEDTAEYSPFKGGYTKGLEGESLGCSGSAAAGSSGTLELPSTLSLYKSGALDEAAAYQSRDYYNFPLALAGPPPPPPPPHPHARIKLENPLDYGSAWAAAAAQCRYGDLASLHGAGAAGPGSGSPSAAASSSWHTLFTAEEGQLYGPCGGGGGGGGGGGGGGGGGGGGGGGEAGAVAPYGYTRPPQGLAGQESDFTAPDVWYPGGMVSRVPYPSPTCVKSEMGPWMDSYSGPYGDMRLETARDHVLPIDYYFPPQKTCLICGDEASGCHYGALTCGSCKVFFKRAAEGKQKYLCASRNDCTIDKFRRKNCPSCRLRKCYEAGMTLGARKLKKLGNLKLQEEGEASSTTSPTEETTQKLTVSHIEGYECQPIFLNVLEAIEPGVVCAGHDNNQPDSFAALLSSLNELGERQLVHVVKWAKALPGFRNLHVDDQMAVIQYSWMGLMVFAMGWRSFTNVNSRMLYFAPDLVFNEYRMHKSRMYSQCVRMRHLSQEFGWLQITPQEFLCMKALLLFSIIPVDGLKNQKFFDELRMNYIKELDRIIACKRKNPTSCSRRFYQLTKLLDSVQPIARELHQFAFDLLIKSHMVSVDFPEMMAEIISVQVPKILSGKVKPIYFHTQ

Consider `CC1(C)C(=O)N(c2ccc([N+](=O)[O-])c(C(F)(F)F)c2)C(=O)N1CCCCCN1C(=O)N(c2ccc([N+](=O)[O-])c(C(F)(F)F)c2)C(=O)C1(C)C` [Example 2, 1,1′-pentane-1,5-diylbis{5,5-dimethyl-3-[4-nitro-3-(trifluoromethyl)phenyl]imidazolidine-2,4-dione}], for which, in the experiment on LNCaP cells [1], the “inhibitory activity on cell proliferation of LNCaP cultured in medium depleted in steroids” value is listed as “visible inhibitory activity at low concentrations”. In addition, the “effect on protein expression of the androgen receptor” value (“effect on protein expression” for short) on androgen receptor was “reduce protein expression of the androgen receptor”.
`CC1(C)C(=O)N(c2ccc([N+](=O)[O-])c(C(F)(F)F)c2)C(=O)N1CCCCCCCN1C(=O)N(c2ccc([N+](=O)[O-])c(C(F)(F)F)c2)C(=O)C1(C)C` [Example 4, 1,1′-heptane-1,7-diylbis{5,5-dimethyl-3-[4-nitro-3-(trifluoromethyl)phenyl]imidazolidine-2,4-dione}]: the IC50 with LNCaP cells [2] is below 1500 nM.
On to `CC1(C)C(=O)N(c2ccc([N+](=O)[O-])c(C(F)(F)F)c2)C(=O)N1CCOCCN1C(=O)N(c2ccc([N+](=O)[O-])c(C(F)(F)F)c2)C(=O)C1(C)C` [Example 7, 1,1′-(oxydiethane-2,1-diyl)bis{5,5-dimethyl-3-[4-nitro-3-(trifluoromethyl)-phenyl]imidazolidine-2,4-dione}], for which the “effect on protein expression” value at androgen receptor is given as “reduce protein expression of the androgen receptor”.
`Cc1cc(N2C(=O)N(CCCCCN3C(=O)N(c4ccc([N+](=O)[O-])c(C)c4)C(=O)C3(C)C)C(C)(C)C2=O)ccc1[N+](=O)[O-]` [Example 10, 1,1′-pentane-1,5-diylbis[5,5-dimethyl-3-(3-methyl-4-nitrophenyl)imidazolidine-2,4-dione]]: in the experiment on LNCaP cells [2], the IC50 was below 1500 nM. In addition, on androgen receptor, the “effect on protein expression” value is recorded as “reduce protein expression of the androgen receptor”.
Take `COc1cc(N2C(=O)N(CCCCCN3C(=O)N(c4ccc([N+](=O)[O-])c(OC)c4)C(=O)C3(C)C)C(C)(C)C2=O)ccc1[N+](=O)[O-]` [Example 13, 1,1′-pentane-1,5-diylbis[3-(3-methoxy-4-nitrophenyl)-5,5-dimethyl-imidazolidine-2,4-dione]]: the IC50 in the experiment with LNCaP cells [2] was below 1500 nM.
Still for that read-out and setting: to `COC(=O)Nc1ccc(N2C(=O)N(CCCCCN3C(=O)N(c4ccc(NC(=O)OC)c(C)c4)C(=O)C3(C)C)C(C)(C)C2=O)cc1C` [Example 14, dimethyl{pentane-1,5-diylbis[(4,4-dimethyl-2,5-dioxoimidazolidine-3,1-diyl)(2-methyl-4,1-phenylene)]}biscarbamate] belongs below 1500 nM.
Regarding `Cc1cc(N2C(=O)N(CCCCCN3C(=O)N(c4ccc(C#N)c(C)c4)C(=O)C3(C)C)C(C)(C)C2=O)ccc1C#N` [Example 15, 4,4′-[pentane-1,5-diylbis(4,4-dimethyl-2,5-dioxoimidazolidine-3,1-diyl)]bis(2-methylbenzonitrile)], at androgen receptor, the “effect on protein expression” value was “reduce protein expression of the androgen receptor”.
`CC1(C)C(=O)N(c2ccc(C#N)c(Cl)c2)C(=O)N1CCCCCN1C(=O)N(c2ccc(C#N)c(Cl)c2)C(=O)C1(C)C` [Example 16, 4,4′-[pentane-1,5-diylbis(4,4-dimethyl-2,5-dioxoimidazolidine-3,1-diyl)]bis(2-chlorobenzonitrile)]: the IC50 in the experiment on LNCaP cells [2] is below 1500 nM. Also, the “effect on protein expression” value on androgen receptor is reported as “reduce protein expression of the androgen receptor”.
Consider `CC1(C)C(=O)N(c2ccc([N+](=O)[O-])c(C(F)(F)F)c2)C(=O)N1C/C=C\CN1C(=O)N(c2ccc([N+](=O)[O-])c(C(F)(F)F)c2)C(=O)C1(C)C` [Example 19, 1,1′-(2Z)-but-2-ene-1,4-diylbis{5,5-dimethyl-3-[4-nitro-3-(trifluoromethyl)phenyl]imidazolidine-2,4-dione}], for which the “inhibitory activity on cell proliferation of LNCaP cultured in medium depleted in steroids” value in the experiment with LNCaP cells [1] is on record as “visible inhibitory activity at low concentrations”. Further, the “effect on protein expression” value on androgen receptor is on record as “reduce protein expression of the androgen receptor”.
In the case of `CC1(C)C(=O)N(c2ccc(C#N)c(C(F)(F)F)c2)C(=O)N1C/C=C\CN1C(=O)N(c2ccc(C#N)c(C(F)(F)F)c2)C(=O)C1(C)C` [Example 21, 4,4′-[(2Z)-but-2-ene-1,4-diylbis(4,4-dimethyl-2,5-dioxoimidazolidine-3,1-diyl)]bis[2-(trifluoromethyl)benzonitrile]], the “effect on protein expression” value on androgen receptor is given as “reduce protein expression of the androgen receptor”.
On the same count and under the same terms, for `CC1(C)C(=O)N(c2ccc(C#N)c(C(F)(F)F)c2)C(=O)N1C[C@@H]1O[C@@H]1CN1C(=O)N(c2ccc(C#N)c(C(F)(F)F)c2)C(=O)C1(C)C` [Example 22, 4,4′-{(2R,3S)-oxirane-2,3-diylbis[methanediyl(4,4-dimethyl-2,5-dioxoimidazolidine-3,1-diyl)]}bis[2-(trifluoromethyl)benzonitrile]] the value was “reduce protein expression of the androgen receptor”.
In the case of `CC1(C)NC(=O)N(c2ccc([N+](=O)[O-])c(C(F)(F)F)c2)C1=O` [nilutamide], in the experiment on LNCaP cells [3], the “agonist / inhibitory activity of nilutamide on LNCaP proliferation” value is listed as “agonist activity at low concentrations, then an inhibitory activity at high concentrations”.
